From patent US7375106B2, “Synergistic combination of an opioid analgesic and a NSAID” (N.V. Organon, priority 2002, dated 2008)

What was measured:
[1] = tested on: licking of the formalin injected paw (Phase 2, 20-30 min); assay: Formalin paw test, determination of ID50 of single agents (experiment 1); format: in vivo, male mice (Hsd Ola:ICR); conditions: single agent; for Effect on Phase 2 licking: i.v., increasing doses; for ID50 (μg/kg) for 2nd phase of licking (95% confidence limits): intravenously 15 min before formalin (20 μl; 3%), 20-30 min after formalin
Description: Six mice were observed simultaneously.
All test agents were administered via a tail vein. […] Each animal was used once only.
Animals (n=6 for each dose/drug) received increasing doses of morphine, ketorolac, indomethacin, the hydrochloride salt of Org 41793 (Org 43273) or vehicle administered intravenously 15 min before injection of formalin (20 μl; 3%) into the plantar surface of the left hindpaw. Data were plotted as the mean time spent licking the formalin injected paw±s.e.m for each of the two time periods (0-5 & 20-30 min) and an ID50 for the group calculated. To calculate the ID50 for the second phase of licking, the time spent licking following test drug treatment was calculated as a percentage of the time spent licking by vehicle-treated mice. An ID50 was then calculated using a non-linear regression fit, sigmoidal dose-response with constants of 0 and 100 for the bottom and top, respectively (GraphPad Prism software).

[2] = tested on: licking of the formalin injected paw (Phase 2, 20-30 min); assay: Formalin paw test, co-administration in constant dose ratio with isobolographic analysis (experiment 2); conditions: for Theoretical ID50 (μg/kg) for 2nd phase of licking (95% confidence limits): component dose at theoretical additive point; for Theoretical ID50 (μg/kg) for 2nd phase of licking (95% confidence limits) / Experimental ID50 (μg/kg) for 2nd phase of licking (95% confidence limits): i.v.; for Experimental ID50 (μg/kg) for 2nd phase of licking (95% confidence limits): component dose, constant dose ratio; for Effect on amount of morphine or Org 41793 required to elicit antinociception: second phase of licking
Description: In mice, recording the time spent licking or biting the injected paw is the most common method of behavioural assessment.
Experiments were performed on male mice (Hsd Ola:ICR) from Harlan UK Ltd. (Bicester, UK). Subjects were grouped on receipt and acclimatised for a minimum of 5 days at a constant temperature (21°±1° C.) under a 12-hour light/12-hour dark cycle. Mice were tail-marked. At the end of the study all mice were euthanized with CO2 or cervical dislocation.
Following subcutaneous formalin injection into the plantar surface of the paw, animals were placed in a Perspex box on a glass plate. A piece of black cardboard was placed on top of the box. A video camera (Sony) placed beneath the glass plate was then used to record the mice for 45 min after formalin injection. Six mice were observed simultaneously. The video camera was linked to a PC and the video images captured as MPEG files using a software package (Studio MP10). The MPEG file was later transferred to CD for offline analysis. A behavioural scoring program (The Observer) was then used to measure the time the mice spent licking the injected paw. Two blocks of time were analysed: 0-5 min (Phase 1) and 20-30 min (Phase 2). These two time periods were chosen to reflect the two phases of licking that typically occur after formalin injection.
All test agents were administered via a tail vein. […] Animals were weighed immediately prior to testing and all test agents were administered in a dosing volume of 5 ml/kg. Each animal was used once only.
The ID50 values calculated in experiment 1 for the second phase licking as previously described were used for this experiment. […] The ID50 of the total dose of the mixture was then calculated from this dose-response curve.
Testing for a significant difference by t-test was not possible since confidence intervals (CIs) were not symmetric around the theoretical additive ID50.

[3] = combination Org 41793 with ketorolac
[4] = combination Org 41793 with ketorolac, listed as ketorolac
[5] = combination Org 41793 with indomethacin
[6] = combination Org 41793 with indomethacin, listed as indomethacin

SMILES | Effect on Phase 2 licking [1] | ID50 (μg/kg) for 2nd phase of licking (95% confidence limits) [1] | ID50 (μg/kg) for 2nd phase of licking (95% confidence limits) ([1]; listed as ketorolac) [µg/kg] | Theoretical ID50 (μg/kg) for 2nd phase of licking (95% confidence limits) [2, 3] | Theoretical ID50 (μg/kg) for 2nd phase of licking (95% confidence limits) [2, 4] [µg/kg] | Experimental ID50 (μg/kg) for 2nd phase of licking (95% confidence limits) [2, 3] | Experimental ID50 (μg/kg) for 2nd phase of licking (95% confidence limits) [2, 4] [µg/kg] | Effect on amount of morphine or Org 41793 required to elicit antinociception [2] | ID50 (μg/kg) for 2nd phase of licking (95% confidence limits) ([1]; listed as indomethacin) [µg/kg] | Theoretical ID50 (μg/kg) for 2nd phase of licking (95% confidence limits) [2, 5] | Theoretical ID50 (μg/kg) for 2nd phase of licking (95% confidence limits) [2, 6] [µg/kg] | Experimental ID50 (μg/kg) for 2nd phase of licking (95% confidence limits) [2, 5] | Experimental ID50 (μg/kg) for 2nd phase of licking (95% confidence limits) [2, 6] [µg/kg] | ID50 (μg/kg) for 2nd phase of licking (95% confidence limits) ([1]; listed as morphine) [µg/kg]
O=C(c1ccccc1)c1ccc2n1CCC2C(=O)O (racemic) [Ketorolac, (±)-5-benzoyl-2,3-dihydro-1H-pyrrolizine-1-carboxylic acid, 2-amino-2-(hydroxymethyl)-1,3-propanediol] | dose-dependent inhibition | 70 (40-134) μg/kg | 70 | Ketorolac: 35 (20-67) μg/kg | 35 | Ketorolac: 5 (2-12) μg/kg | 5 | opioid sparing | – | – | – | – | – | –
COc1ccc2c(c1)c(CC(=O)O)c(C)n2C(=O)c1ccc(Cl)cc1 [Indomethacin, indomethacin] | dose-dependent inhibition | 340 (218-531) μg/kg | – | – | – | – | – | opioid sparing | 340 | Indomethacin: 170 (109- μg/kg | 170 | Indomethacin: 40 (26-58) μg/kg | 40 | –
CN1CC[C@]23c4c5ccc(O)c4O[C@H]2[C@@H](O)C=C[C@H]3[C@H]1C5.O.O.O.O.O.O=S(=O)(O)O [Morphine, Morphine sulphate pentahydrate] | dose-dependent inhibition | 870 (496-1522) μg/kg | – | – | – | – | – | – | – | – | – | – | – | 870
C=CCN1C[C@H](C)N([C@@H](c2cccc(O)c2)c2cccc(C(=O)N(C)c3cccc(F)c3)c2)C[C@H]1C [Org 41793, 3-[(αR)-α-((2S,5R)-4-allyl-2,5-dimethyl-1-piperazinyl)-3-hydroxybenzyl]-N-(3-fluorophenyl)-N-methylbenzamide] | dose-dependent inhibition | 92 (60-140) μg/kg | – | – | – | – | – | – | – | – | – | – | – | –
